Data on 21 compounds can be found in US20250243343A1, “LUBRICANT COMPOSITION FOR PREPARING ETHYLENE-BASED POLYMER AND METHOD OF PREPARING ETHYLENE-BASED POLYMER USING THE SAME” (SK INNOVATION CO., LTD., priority 2024, published 2025).

Some results are limits rather than exact numbers.

Series [1] can be described thus: Acrylic acid self-polymerization (time until PAA formation). Particulars: for Polymerization time: oil:stabilizer 100:0.5, AA:lubricant composition 1:1 by weight, 100° C.; for polymerization stability time / PAA formation inhibition effect (in words): Table 1.
Experimental: The reactor was heated to 100° C., followed by observing whether a self-polymer (PAA) was formed in the reactor every 10 minutes. As soon as the PAA was observed visually, the experiment was stopped and a polymerization time was recorded.
Series [2] in a line: Measurement of solubility of the oxidation stabilizer in white mineral oil (visual observation). Particulars: Table 1.
Experimental: A lubricant composition was prepared by mixing a white mineral oil and the oxidation stabilizer of Table 1 below in a weight ratio of 100:0.1.
The lubricant composition was left for 1 hour and observed visually. If precipitation occurred or the lubricant composition discolored or became opaque, it was evaluated as “X.” When no precipitation occurred and the lubricant composition was colorless and transparent, it was evaluated as “O.”
The mark [3] stands for this setting: nitrogen atmosphere, PAA observed visually every 10 minutes.

In series [1] (setting [3]), `CC(C)(C)CC(C)(C)c1cc(O)c(C(C)(C)CC(C)(C)C)cc1O` [B-11, 2,5-Bis(1,1,3,3-tetramethylbutyl) hydroquinone] registered a Polymerization time of 2 h. On the same count and under the same terms, in the case of `Cc1c(C)c2c(c(C)c1O)CC[C@@](C)(CCC[C@H](C)CCC[C@H](C)CCCC(C)C)O2` [B-4, Vitamin E] it was 0.5 h; in that of bis(nonylphenyl)amine [B-16], 0.667 h. Still for that read-out and setting: the result for `COc1cc(C(C)(C)C)c(O)c(C(C)(C)C)c1` [A-2, 2,6-Di-tert-butyl-4-methoxyphenol] reads 23 h; that for `CC(C)(C)c1cc(C(=O)O)cc(C(C)(C)C)c1O` [B-7, 3,5-Di-tert-butyl-4-hydroxybenzoic acid], 0.333 h; that for `CCc1cc(Cc2cc(CC)cc(C(C)(C)C)c2O)c(O)c(C(C)(C)C)c1` [B-10, 2,2′-Methylenebis(6-tert-butyl-4-ethylphenol)], 0.333 h.

For `CCCCCCCCSc1nc(Nc2cc(C(C)(C)C)c(O)c(C(C)(C)C)c2)nc(SCCCCCCCC)n1` [B-19], in series [1] (setting [3]), the Polymerization time came out at 0.333 h. Compound `CCC(C)(C)c1ccc(O)c(C(C)(C)CC)c1` [B-9, 2,4-Di-tert-amylphenol] came in with a Polymerization time in series [1] (setting [3]) of 2 h. In turn, `CC(C)(C)c1cc(CO)cc(C(C)(C)C)c1O` [B-6, 2,6-Di-tert-butyl-4-hydroxymethylphenol] had a Polymerization time in series [1] (setting [3]) of 2 h.

Turning to `COc1ccc(O)c(C(C)(C)C)c1` [A-1, Butylated hydroxyanisole], the “polymerization stability time / PAA formation inhibition effect (in words)” value in series [1] was “greatly increased”. Moreover, in series [1] (setting [3]), the Polymerization time is >150 h. In addition, in series [2], the “solubility in the white mineral oil (in words)” value (from here on “solubility”) is on record as “high”. With `CCCCCCCCSc1nc(Nc2cc(C(C)(C)C)c(O)c(C(C)(C)C)c2)nc(SCCCCCCCC)n1` [B-12], the Polymerization time entry in series [1] (class symbol) is listed as “— (When the PAA was formed within 10 minutes, it was evaluated as “-.”)”. Same read-out and setting: the result for `CCc1cc(C(C)(C)C)c(O)c(C(C)(C)C)c1` [B-14, 2,6-Di-tert-butyl-4-ethylphenol] reads “— (When the PAA was formed within 10 minutes, it was evaluated as “-.”)”; that for `CC(C)(C)c1cccc(C(C)(C)C)c1O` [B-5, 2,6-Di-tert-butylphenol], “— (When the PAA was formed within 10 minutes, it was evaluated as “-.”)”.

Turning to `c1ccc2c(c1)Nc1ccccc1S2` [B-3, Phenothiazine], in series [1] (setting [3]), the Polymerization time is >150 h. Moreover, in series [2], the “solubility” value was “not substantially dissolved”.

Take `COc1ccc(O)cc1` [B-2, 4-Methoxyphenol]: in series [1] (setting [3]), the Polymerization time is >150 h. Also, the “solubility” value in series [2] is listed as “greatly decreased”. As for `Cc1cc(C(C)(C)C)c(O)c(C(C)(C)C)c1` [B-1, Butylated hydroxytoluene], the “polymerization stability time / PAA formation inhibition effect (in words)” value in series [1] is on record as “greatly reduced”. Further, the Polymerization time in series [1] (setting [3]) came out at 2 h.

On to `CCCCCCCCOc1ccc(C(=O)c2ccccc2)c(O)c1` [B-18, 2-hydroxy-4-n-octyloxybenzophenone], for which, in series [1] (setting [3]), the Polymerization time amounted to 0.333 h. `CCOP(=O)(Cc1cc(C(C)(C)C)c(O)c(C(C)(C)C)c1)OCC` [B-8, Diethyl 3,5-Di-tert-butyl-4-hydroxybenzylphosphonate]: in series [1] (setting [3]), the Polymerization time stood at 0.333 h.

For the compound `CC(C)(C)c1cc(CCC(=O)OCCSCCOC(=O)CCc2cc(C(C)(C)C)c(O)c(C(C)(C)C)c2)cc(C(C)(C)C)c1O` [B-13, 2,2″-Thiodiethylene Bis [3-(3,5-di-tert-butyl-4-hydroxyphenyl) propionate]], the Polymerization time entry in series [1] (class symbol) is given as “— (When the PAA was formed within 10 minutes, it was evaluated as “-.”)”. In series [1] (setting [3]), `CC(C)(C)c1cc(O)c(O)c(C(C)(C)C)c1` [B-17, 3,5-Di-tert-butylcatechol] had a Polymerization time of 5 h.

`COc1ccc(O)c(C(C)(C)C)c1` [A-3, 3-tert-butyl-4-hydroxyanisole]: the Polymerization time in series [1] (setting [3]) came to 72 h.
